Test results: patent US8097650B2, “Method of treating a condition associated with phosphorylation of TASK-1” (The Trustees of Columbia University In The City of New York, priority 2005, dated 2012)

Tested on: murine TASK-1 T381A mutant
Experiment: T381A mutant TASK-1 current in CHO cells
Format: cell-based, mouse
Conditions: +30 mV, C-PAF 185 nM
Procedure: pCMV-TASK1 (cTBAK) consists of a 1.9 kb sequence of murine TASK-1 inserted in pcDNA3.1 (a kind gift of Dr. Yoshihisa Kurachi, University of Osaka, Japan) and has been previously described (Leonoudakis D et al. (1998) J Neurosci 18: 868-877). pEGFP-C1 and pIRES-EGFP were purchased from Clontech. pTIE (TASK1-IRES-EGFP) was constructed by inserting a 1.9 kb EcoR1 fragment from pCMV-TASK1 into EcoR1 digested pIRES-EGFP. Site-directed mutagenesis was performed on pTIE using the Quik-Change kit (Stratagene) following the manufacturer's instructions. […]
Cells were either co-transfected with pCMV-TASK1 together with pEGFP-C1 (1 μg total, 3:1) or transfected with […] or T381A-pTIE (1 μg). 48 h after the transfection the cells were checked under the microscope for green fluorescence. […]
The myocyte suspension or the coverslip with CHO cells was placed into a perfusion chamber, mounted on the stage of an inverted microscope. […] Membrane potential and current were measured in the whole cell configuration using borosilicate glass pipettes with a tip resistance between […] and filled with a pipette solution containing (mM): aspartic acid, 130; KOH, 146; NaCl, 10; CaCl2, 2; EGTA, 5; HEPES, 10; MGATP, 2; pH 7.2. […] Myocytes treated with the peptides were monitored continuously beginning immediately after rupture to detect the occurrence of any arrhythmias during dialysis of the peptide. […]

## CCCCCCCCCCCCCCCCOC[C@H](COP(=O)([O-])OCC[N+](C)(C)C)OC(=O)NC [C-PAF, carbamyl-platelet-activating factor]
  maximal current in the presence of C-PAF: 44.2±7 pA/pF
